Assay results reported in publication PMC6389896 (Communications Biology, 2019).

Legend:
[1] = target: human esRAGE (Homo sapiens, UniProt Q15109); experiment: Surface plasmon resonance (BIAcore) of oxytocin binding to immobilised esRAGE; settings: SPR BIAcore 2000, immobilised recombinant human esRAGE (~5000 RU), 10 mM HEPES pH 7.4, 0.15 M NaCl, 25 °C; read-out: apparent dissociation constant (KD)
Method: Isolated human esRAGE was immobilised to BIAcore CM5 research grade sensor chips with the amine coupling kit to a density of ~5000 response units (RU)[27],[32],[41]. […] The sensor chips were regenerated with 10 mM NaOH and 0.5% SDS (W/V).

[2] = Plasma oxytocin after subcutaneous injection, EIA; type: in vivo, mouse; settings: WT and Ager-/- male mice
Method: CSF was collected according to the protocol for sampling CSF from mice without detectable plasma contamination[77],[78]. Under ketamine anaesthesia (100 mg/kg intraperitoneally), the occipital skull was exposed, and the dura mater of the cisterna magna appeared as a glistening and clear reverse triangle through which the medulla oblongata, a major blood vessel (arteria dorsalis spinalis), and CSF space were visible. A capillary tube was inserted into the cisterna magna through the dura mater, blood-free CSF samples were collected with a 32G needle and immediately frozen with dry ice prior to storage at −80 °C. After CSF collections, blood samples were obtained by cardiac puncture from the mice under continuous ketamine anaesthesia.
The CSF samples (5 μl) were thawed and diluted 1:20 in assay buffer. CSF samples were assayed without protein extraction due to the low protein concentration in the CSF. […] The inter-assay and intra-assay coefficients of variation were less than 15%.
Supplementary Figure 5. Transportation of peripherally administrated oxytocin (OT) or PBS into […]
Blood was recovered from the cardiac ventricles of the wild type (WT, RAGE+/+) and Ager-/- (RAGE-/-) male mice (n = 3–16). Oxytocin was measured in the extracted samples. […]
concentrations were measured with enzyme immunosorbent assay (EIA) or LC-MS/MS. […]

Sequence of human esRAGE (Q15109 23-347 isoform Q15109-3 limits assumed): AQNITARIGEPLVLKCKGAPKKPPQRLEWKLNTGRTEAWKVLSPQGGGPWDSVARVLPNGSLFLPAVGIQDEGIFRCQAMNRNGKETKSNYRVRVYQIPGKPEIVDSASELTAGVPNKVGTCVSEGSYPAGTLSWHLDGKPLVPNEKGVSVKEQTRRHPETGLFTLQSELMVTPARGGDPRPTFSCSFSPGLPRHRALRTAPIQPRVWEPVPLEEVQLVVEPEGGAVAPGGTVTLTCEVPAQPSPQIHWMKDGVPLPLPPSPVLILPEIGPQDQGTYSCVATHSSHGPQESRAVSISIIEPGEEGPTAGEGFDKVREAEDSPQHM

Kd [1]: 179 nM | Tmax ([2]; plasma, sc 30 ng/mouse (approximately 1.1 μg/kg)): ≤ 10 min | time of return of blood oxytocin to baseline ([2]; sc 30 ng/mouse): 1 to 2 h
Compound: CC[C@H](C)[C@@H]1NC(=O)[C@H](Cc2ccc(O)cc2)NC(=O)[C@@H](N)CSSC[C@@H](C(=O)N2CCC[C@H]2C(=O)N[C@@H](CC(C)C)C(=O)NCC(N)=O)NC(=O)[C@H](CC(N)=O)NC(=O)[C@H](CCC(N)=O)NC1=O [oxytocin, Oxytocin]
